According to US11478460B2, “Diaryl substituted 6,5-fused ring compounds as C5aR inhibitors” (CHEMOCENTRYX, INC., priority 2017, dated 2022):

Target: C5aR (Homo sapiens (Human), UniProt P21730)
Test: Chemotaxis assay using U937 cells (C5aR mediated migration)
Type: cell-based
Details: read-out: Mig IC50
Summary of the method: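 Migration toward 0.03 nM C5a, mixed with varying compound in the lower chamber (HBSS with 1% FBS), was measured over 1.5 h at 37° C through 5 μm filters. Upper chamber held 100,000 U937 cells treated overnight with 0.5 mM cAMP; migrated cells quantified by counts or CyQuant for IC50, SDF-1α as specificity control.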

C5aR, sequence (P21730 whole entry): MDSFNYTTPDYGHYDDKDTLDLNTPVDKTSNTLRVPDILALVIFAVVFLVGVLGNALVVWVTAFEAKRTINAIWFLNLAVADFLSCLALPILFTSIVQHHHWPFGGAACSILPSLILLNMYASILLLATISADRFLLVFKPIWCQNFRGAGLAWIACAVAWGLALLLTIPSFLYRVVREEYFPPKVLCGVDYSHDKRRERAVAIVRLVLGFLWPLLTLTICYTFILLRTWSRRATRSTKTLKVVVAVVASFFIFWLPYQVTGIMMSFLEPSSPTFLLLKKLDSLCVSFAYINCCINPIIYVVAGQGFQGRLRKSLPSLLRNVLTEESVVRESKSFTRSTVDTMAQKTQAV

Structure (SMILES)	IC50
CCOc1cccc(C)c1-n1nc2c(c1-c1ccc(N)cc1)CN(c1ccccc1C(C)C)CC2 [Example 1.479]	50 to 500 nM
COc1cccc(C)c1-n1nc2c(c1-c1ccc(NC(C)C)cc1)CN(c1ccccc1C(C)C)CC2 [Example 1.485]	50 to 500 nM
Cc1cccc(OCC(C)C)c1-n1nc2c(c1-c1ccc(NC(N)=O)cc1)CN(c1ncc(C(F)(F)F)cc1Cl)CC2 [Example 1.353]	5 to 50 nM
Cc1cccc(CCC(C)C)c1-n1nc2c(c1-c1ccc(NC(N)=O)cc1)CN(CC(C)(C)C)CC2 [Example 1.336]	5 to 50 nM
Cc1cc(C(C)(C)O)cnc1N1CCc2nn(-c3c(C)cccc3OCC(C)C)c(-c3ccc(NC(N)=O)cc3)c2C1 [Example 1.364]	> 500 nM
COc1cc(CN2CCc3nn(-c4c(C)cccc4OCC(C)C)c(-c4ccc(NC(N)=O)cc4)c3C2)c(F)cc1Cl [Example 1.305]	5 to 50 nM
CCCCN1CCc2nn(-c3c(C)cccc3OCC(C)C)c(-c3ccc(NC(N)=O)c(F)c3)c2C1 [Example 1.231]	5 to 50 nM
CCc1cccc(CC)c1-n1nc2c(c1-c1cc(F)c(NC(N)=O)cc1F)CN(C(C(N)=O)c1ccccc1)CC2 (centres unmarked) [Example 1.135]	> 500 nM
Cc1cccc(OCC(C)C)c1-n1nc2c(c1-c1cc(F)c(NC(N)=O)cc1F)CN(c1ncnc3cc[nH]c13)CC2 [Example 1.140]	> 500 nM
Cc1cccc(OCC(C)C)c1-n1nc2c(c1-c1ccc(NC(N)=O)cc1)CN(S(=O)(=O)c1ccccc1C(F)(F)F)CC2 [Example 1.298]	50 to 500 nM
Cc1cc(C(N)=O)ccc1-c1c2c(nn1-c1c(C)cccc1C)CCN(c1ncc(Cl)cc1Cl)C2 [Example 1.108]	> 500 nM
Cc1cccc(OCC(C)C)c1-n1nc2c(c1-c1ccc(NC(N)=O)cc1)CN(CC(C(F)(F)F)C(F)(F)F)CC2 [Example 1.346]	5 to 50 nM
Cc1cc(C(F)(F)F)cnc1N1CCc2nn(-c3c(C)cccc3OCC(C)C)c(-c3ccc(NC(N)=O)cc3)c2C1 [Example 1.340]	5 to 50 nM
CCc1cccc(CC)c1-n1nc2c(c1-c1cc(F)c(NC(N)=O)cc1F)CN(C(=O)C(C)C)CC2 [Example 1.030]	5 to 50 nM
Cc1cccc(OCC(C)C)c1-n1nc2c(c1-c1ccc(NC(N)=O)cc1)CN(CC1CCCC1)CC2 [Example 1.404]	5 to 50 nM
Cc1cccc(OCC(C)C)c1-n1nc2c(c1-c1ccc(NC(N)=O)cc1)CN(C(C)c1cccc(C(F)(F)F)c1)CC2 (centres unmarked) [Example 1.314]	5 to 50 nM
CCN1CCc2nn(-c3c(C)cccc3OCC(C)C)c(-c3ccc(NC(N)=O)c(F)c3)c2C1 [Example 1.265]	50 to 500 nM
COc1cccc(F)c1CN1CCc2nn(-c3c(C)cccc3OCC(C)C)c(-c3ccc(NC(N)=O)cc3)c2C1 [Example 1.354]	5 to 50 nM
CCc1cccc(CC)c1-n1nc2c(c1-c1ccc(NC(N)=O)c(F)c1)CN(C(C)CC)CC2 (centres unmarked) [Example 1.235]	5 to 50 nM
Cc1ccc(C(C)(C)C)cc1N1CCc2nn(-c3c(C)cccc3C)c(-c3ccc(NC(N)=O)cc3)c2C1 [Example 1.442]	5 to 50 nM
CCc1cccc(CC)c1-n1nc2c(c1-c1cc(F)c(NC(N)=O)cc1F)CN(Cc1cn(C)nc1C(F)(F)F)CC2 [Example 1.075]	5 to 50 nM
CCc1cccc(CC)c1-n1nc2c(c1-c1ccc(NC(N)=O)c(F)c1)CN(C(CC)CC)CC2 [Example 1.219]	5 to 50 nM

Structure (SMILES)	IC50
Cc1cccc(F)c1-n1nc2c(c1-c1ccc(N)cc1)CN(c1ccccc1C(C)C)CC2 [Example 1.464]	50 to 500 nM
CC[C@@H](c1ccccc1)N1CCc2nn(-c3c(C)cccc3C)c(-c3ccc(NC(N)=O)c(F)c3)c2C1 [Example 1.083]	5 to 50 nM
Cc1cccc(OCC(C)C)c1-n1nc2c(c1-c1ccc(NC(N)=O)cc1)CN(Cc1cc(C(F)(F)F)ccc1C(F)(F)F)CC2 [Example 1.335]	≤ 5 nM
Cc1cccc(C)c1-n1nc2c(c1-c1cc(F)c(NC(N)=O)cc1F)CN(c1ccc(Cl)cc1F)CC2 [Example 1.107]	≤ 5 nM
CCc1cccc(CC)c1-n1nc2c(c1-c1cc(F)c(NC(N)=O)cc1F)CN(C(C)(C)c1ccccc1)CC2 [Example 1.200]	≤ 5 nM
CCc1cccc(CC)c1-n1nc2c(c1-c1cc(F)c(NC(N)=O)cc1F)CN(Cc1cc(F)ccc1F)CC2 [Example 1.046]	≤ 5 nM
CCc1cccc(CC)c1-n1nc2c(c1-c1cc(F)c(NC(N)=O)cc1F)CN(C(=O)C(C)C)C(C)(C)C2 [Example 1.032]	≤ 5 nM
COc1ccc(-c2c3c(nn2-c2c(C)cccc2C)CCN(c2cc(C(C)(C)C)ccc2C)C3)cc1 [Example 1.472]	50 to 500 nM
Cc1cccc(OCC(C)C)c1-n1nc2c(c1-c1ccc(NC(N)=O)c(F)c1)CN(C(C)C)CC2 [Example 1.264]	50 to 500 nM
CCc1cccc(CC)c1-n1nc2c(c1-c1cc(F)c(NC(N)=O)cc1F)CN(Cc1ccc(C(F)(F)F)cc1Cl)C(C)(C)C2 [Example 1.035]	≤ 5 nM
CCc1cccc(CC)c1-n1nc2c(c1-c1cc(F)c(NC(N)=O)cc1F)CN(C(C(=O)OC)c1ccccc1)CC2 (centres unmarked) [Example 1.148]	≤ 5 nM
Cc1cccc(C)c1-n1nc2c(c1-c1ccc(C(N)=O)cc1)CN(c1ncc(Cl)cc1Cl)CC2 [Example 1.109]	50 to 500 nM
Cc1cccc(OCC(C)C)c1-n1nc2c(c1-c1ccc(NC(N)=O)cc1)CN(CCC(C)(C)C)CC2 [Example 1.393]	50 to 500 nM
Cc1cccc(OCC(C)C)c1-n1nc2c(c1-c1ccc(C(N)=O)cc1)CN(C(=O)OC(C)(C)C)CC2 [Example 1.411]	> 500 nM
CCc1cccc(CC)c1-n1nc2c(c1-c1cc(F)c(NC(N)=O)cc1F)CN(Cc1cc(Cl)ccc1C(F)(F)F)CC2 [Example 1.069]	≤ 5 nM
Cc1ccc(C(C)(C)C)cc1N1CCc2nn(-c3c(C)cccc3OCC(C)C)c(-c3ccc(NC(N)=O)cc3)c2C1 [Example 1.457]	≤ 5 nM
Cc1cccc(OCC(C)C)c1-n1nc2c(c1-c1ccc(NC(N)=O)cc1)CN(Cc1cc(F)ccc1Cl)CC2 [Example 1.320]	≤ 5 nM
Cc1cccc(OCC(C)C)c1-n1nc2c(c1-c1cc(F)c(NC(N)=O)cc1F)CN(c1ncncc1Cl)CC2 [Example 1.141]	≤ 5 nM
Cc1cccc(C)c1-n1nc2c(c1-c1cc(F)c(NC(N)=O)cc1F)CN(c1ncc(Cl)cc1F)CC2 [Example 1.132]	≤ 5 nM
Cc1cnc(N2CCc3nn(-c4c(C)cccc4C)c(-c4cc(F)c(NC(N)=O)cc4F)c3C2)c(Cl)c1 [Example 1.115]	≤ 5 nM
CCCC(C)N1CCc2nn(-c3c(C)cccc3OCC(C)C)c(-c3ccc(NC(N)=O)c(F)c3)c2C1 (centres unmarked) [Example 1.247]	≤ 5 nM
Cc1cccc(C)c1-n1nc2c(c1-c1cc(F)c(NC(N)=O)cc1F)CN(c1ncc(Cl)cc1C#N)CC2 [Example 1.102]	≤ 5 nM

Second part, the molecule after the results:

IC50	Structure (SMILES)
≤ 5 nM	CCc1cccc(CC)c1-n1nc2c(c1-c1cc(F)c(NC(N)=O)cc1F)CN(C(C)(C)c1ccccc1F)CC2 [Example 1.186]
≤ 5 nM	CCc1cccc(CC)c1-n1nc2c(c1-c1cc(F)c(NC(N)=O)cc1F)CN(Cc1cc(C(F)(F)F)ccc1C(F)(F)F)CC2 [Example 1.055]
≤ 5 nM	Cc1cccc(OCC(C)C)c1-n1nc2c(c1-c1ccc(NC(N)=O)cc1)CN(c1ccc(F)cc1C(F)(F)F)CC2 [Example 1.318]
≤ 5 nM	Cc1cccc(OCC(C)C)c1-n1nc2c(c1-c1ccc(NC(N)=O)c(F)c1)CN(c1ncc(F)cc1Cl)CC2 [Example 1.228]
≤ 5 nM	Cc1cccc(C)c1-n1nc2c(c1-c1cc(F)c(NC(N)=O)cc1F)CN(Cc1ccc(Cl)cc1C(F)(F)F)CC2 [Example 1.061]
≤ 5 nM	CCc1cccc(CC)c1-n1nc2c(c1-c1cc(F)c(NC(N)=O)cc1F)CN(Cc1cc(C(F)(F)F)ccc1C(F)(F)F)C(C)(C)C2 [Example 1.011]
≤ 5 nM	Cc1cccc(OCC(C)C)c1-n1nc2c(c1-c1cc(F)c(NC(N)=O)cc1F)CN(c1ccnc(C(C)C)n1)CC2 [Example 1.139]
≤ 5 nM	Cc1cccc(OC(C)C)c1-n1nc2c(c1-c1ccc(NC(N)=O)cc1)CN(c1ccccc1C(C)C)CC2 [Example 1.460]
≤ 5 nM	CCc1cccc(CC)c1-n1nc2c(c1-c1cc(F)c(NC(N)=O)cc1F)CN(Cc1ccc(C(F)(F)F)cc1Cl)CC2 [Example 1.057]
≤ 5 nM	Cc1ccc(C(C)(C)C)cc1N1CCc2nn(-c3c(C)cccc3CC(C)C)c(-c3ccc(NC(N)=O)cc3)c2C1 [Example 1.401]
≤ 5 nM	Cc1cccc(OCC(C)C)c1-n1nc2c(c1-c1ccc(NC(N)=O)cc1)CN(c1ncc(F)cc1C(F)(F)F)CC2 [Example 1.322]
≤ 5 nM	Cc1cc(NC(N)=O)ccc1-c1c2c(nn1-c1c(C)cccc1C)CCN(c1ccccc1C(C)C)C2 [Example 1.463]
≤ 5 nM	Cc1cccc(OCC(C)C)c1-n1nc2c(c1-c1ccc(NC(N)=O)cc1)CN(Cc1ccc(C(F)(F)F)cc1Cl)CC2 [Example 1.315]
≤ 5 nM	Cc1cccc(C)c1-n1nc2c(c1-c1cc(F)c(NC(N)=O)cc1F)CN(Cc1ccc(C(F)(F)F)cc1C(F)(F)F)C(C)(C)C2 [Example 1.033]
≤ 5 nM	CC[C@H](c1ccccc1)N1CCc2nn(-c3c(C)cccc3C)c(-c3cc(F)c(NC(N)=O)cc3F)c2C1 [Example 1.100]
≤ 5 nM	Cc1cccc(C)c1-n1nc2c(c1-c1cc(F)c(NC(N)=O)cc1F)CN(c1ccc(C(C)(C)C)cc1Cl)CC2 [Example 1.098]
≤ 5 nM	CC(C)(c1ccccc1)N1CCc2nn(-c3ccccc3OC(F)(F)F)c(-c3cc(F)c(NC(N)=O)cc3F)c2C1 [Example 1.138]
≤ 5 nM	Cc1cccc(OCC(C)C)c1-n1nc2c(c1-c1cc(F)c(NC(N)=O)cc1F)CN(c1ncc(F)cc1Cl)CC2 [Example 1.169]
≤ 5 nM	Cc1cccc(C)c1-n1nc2c(c1-c1cc(F)c(NC(N)=O)cc1F)CN(c1ncc(C(C)C)cc1F)CC2 [Example 1.165]
≤ 5 nM	Cc1cccc(OCC(C)C)c1-n1nc2c(c1-c1ccc(NC(N)=O)cc1)CN(Cc1c(F)cccc1C(F)(F)F)CC2 [Example 1.351]
≤ 5 nM	CCc1cccc(CC)c1-n1nc2c(c1-c1cc(F)c(NC(N)=O)cc1F)CN(C(C)(C)c1ccc(OC)cc1)CC2 [Example 1.157]
